Experimental data published in patent US9828342B2, “Isatin derivatives, pharmaceutical compositions thereof, and methods of use thereof” (CITY OF HOPE, priority 2012, dated 2017).
Read-outs that look alike come from different tables or passages of the source. Each block holds one molecule with its values, some of them ahead of it.

Tests used:
[1] = system: DU145 prostate cancer cells; assay: MTS cell viability assay in DU145 prostate cancer cells; type: cell-based
Protocol: (§1) Then, MTS assays for cell viability were carried out to determine the IC50 values. Four samples were tested for each isatin derivative at each concentration in each cell line, and the averaged data were shown in Table 2a and FIGS. 1˜4.
(§2) IC50 of values of isatin derivatives Compounds 101˜123 were determined in cancer cell lines DU145 and A2058 respectively.

[2] = system: A2058 human melanoma cells; assay: MTS cell viability assay in A2058 melanoma cells; type: cell-based
Protocol: as §1, §2

[3] = system: PANC-1 pancreatic cancer cells; assay: MTS cell viability assay in PANC-1 pancreatic cancer cells; type: cell-based; details: Homo sapiens, PANC-1, 48 hr, 1% DMSO
Protocol: (§3) Each type of cells (5,000 or 10,000 cells/well) were treated with different concentration (0.1 μM to 10 μM in 1% DMSO of Compound 2 or Compound 22 respectively for 48 hr). Then, MTS assays for cell viability were carried out to determine the IC50 values. Four samples were tested for each test compound at each concentration for each type of cells, and the averaged data were shown in Table 3 and FIG. 5.

[4] = system: PaCa2 pancreatic cancer cells; assay: MTS cell viability assay in PaCa2 pancreatic cancer cells; type: cell-based; details: PaCa-2, PaCa2, 48 hr, 1% DMSO
Protocol: as §3

[5] = system: OVCAR5 ovarian cancer cells; assay: MTS cell viability assay in OVCAR5 ovarian cancer cells; type: cell-based; details: Homo sapiens, OVCAR-5, OVCAR5, 48 hr, 1% DMSO
Protocol: as §3, with “to 20” for “to 10”, “of cisplatin” for “of Compound 2”, “Compound 2, 9, 12, 16 or” for “Compound”, “Table 4” for “Table 3”, “and FIGS. 6-8.” for “and FIG. 5.”

[6] = system: A2780 cisplatin-resistant ovarian cancer cells; assay: MTS cell viability assay in A2780 cisplatin-resistant ovarian cancer cells; type: cell-based; details: for IC50: A2780 cisplatin-resistant, 48 hr, 1% DMSO, MTS
Protocol: as §3, with “to 20” for “to 10”, “of cisplatin” for “of Compound 2”, “Compound 2, 9, 12, 16 or” for “Compound”, “Table 4” for “Table 3”, “and FIGS. 6-8.” for “and FIG. 5.”

[7] = system: OCI-Ly3 non-Hodgkins B cell lymphoma cells; assay: MTS cell viability assay in OCI-Ly3 lymphoma cells; type: cell-based; details: Homo sapiens, OCI-Ly3, 48 hr, 1% DMSO
Protocol: as §3, with “concentration (0.01” for “concentration (0.1”, “to 5” for “to 10”, “of the test compound” for “of Compound 2 or Compound 22”, “Table 5” for “Table 3”, “and FIGS. 10˜12.” for “and FIG. 5.”

[8] = system: Daudi B Cell Burkitt lymphoma cells; assay: MTS cell viability assay in Daudi lymphoma cells; type: cell-based; details: Homo sapiens, 48 hr, 1% DMSO
Protocol: as §3, with “concentration (0.01” for “concentration (0.1”, “to 5” for “to 10”, “of the test compound” for “of Compound 2 or Compound 22”, “Table 5” for “Table 3”, “and FIGS. 10˜12.” for “and FIG. 5.”

[9] = system: Anaplastic Large T cell lymphoma cells; assay: MTS cell viability assay in anaplastic large T cell lymphoma cells; type: cell-based; details: 48 hr, 1% DMSO
Protocol: as §3, with “concentration (0.01” for “concentration (0.1”, “to 5” for “to 10”, “of the test compound” for “of Compound 2 or Compound 22”, “Table 5” for “Table 3”, “and FIGS. 10˜12.” for “and FIG. 5.”

Cyclin B1 = assay: Immunoblot of Cyclin B1 content in DU145 and A2058 cells; type: cell-based; details: DU145 or A2058 cells, 0.1, 1 or 2.5 μM, 24 hr, higher dosage
Protocol: (§4) DU145 prostate cancer cells or A2058 melanoma cells were incubated with Compound 22 at a concentration of 0.1, 1, or 2.5 μM or DMSO for 24 hr. Cells were lysed using Laemmli buffer. The differences in the content of Cyclin B1 and phosphorylation of Cdc25C were determined by immunoblot analysis.

Cdc25C = assay: Immunoblot of Cdc25C phosphorylation in DU145 and A2058 cells; type: cell-based; details: DU145 or A2058 cells, 0.1, 1 or 2.5 μM, 24 hr, higher dosage
Protocol: as §4

tubulin = assay: In vitro tubulin polymerization assay (HTS-Tubulin polymerization assay kit); type: biochemical; details: 1 μM, 4 mg/mL tubulin, 1 hr, 37° C.
Protocol: To determine whether Compound 22 inhibits tubulin formation in vitro, HTS-Tubulin polymerization assay kits (cytoskeleton) were used. The assay procedure was performed using the manufacturer's protocol. Briefly, each 4 mg tubulin was resuspended with 1 mL of the cold G-PEM (80 mM PIPES pH6.9, 2 mM MgCl2, 0.5 mM EGTA) buffer to make the final concentration of 4 mg/mL. The reaction volume was 100 μL. Tubulin polymerization was monitored with the kinetic mode at […] for 1 hr at 37° C. […] Together, compound 22 is a promising lead compound to develop new anticancer drugs as new class of microtubule inhibitors.

[10] = system: SKOV3 ovarian cancer cells; assay: MTS cell viability assay in SKOV3 ovarian cancer cells; type: cell-based; details: Homo sapiens, SK-OV-3, SKOV3, 48 hr, 1% DMSO
Protocol: as §3, with “to 20” for “to 10”, “of cisplatin” for “of Compound 2”, “Compound 2, 9, 12, 16 or” for “Compound”, “Table 4” for “Table 3”, “and FIGS. 6-8.” for “and FIG. 5.”

EGFR = assay: Immunoblot of EGFR phosphorylation in DU145 cells; type: cell-based; details: DU145, 0.5-5 μM, 4 hr, EGF 10 ng/ml, vs negative control, concentration-associated
Protocol: (§5) DU145 prostate cancer cells were incubated in complete growth medium in 100 mm petri dishes (1×10^6 cells per dish) for 24 hr. Compound 2 was added at a concentration of 0.5 μM, 1.0 μM, 2.5 μM, and 5 μM respectively. Cell samples that were not added any Compound 2 were negative controls. After 4 hr, EGF (10 ng/ml final concentration) was added to culture media and cells were lysed using Laemmli buffer. Differences in the phosphorylation of Erk1/2 and EGFR were determined by immunoblot analysis (FIG. 13).

Erk1/2 [11] = assay: Immunoblot of Erk1/2 phosphorylation in DU145 cells; type: cell-based; details: DU145, 0.5-5 μM, 4 hr, EGF 10 ng/ml, vs negative control, concentration-associated
Protocol: as §5

Her2/Neu = assay: Immunoblot of Her2/Neu phosphorylation in A2058 cells; type: cell-based, human; details: A2058, 0.5-5 μM, 4 hr, vs negative control, concentration-associated
Protocol: (§6) A2058 melanoma cells were incubated in complete growth medium in 100 mm petri dishes (1×10^6 cells per dish) for 24 hr. Compound 2 was added at a concentration of 0.5 μM, 1.0 μM, 2.5 μM, and 5 μM respectively. Cell samples that were not added any Compound 2 were negative controls. After 4 hr, cells were lysed using Laemmli buffer. Differences in the phosphorylation of Her2/Neu, Jak2, Src, Stat3, AKT, and Erk1/2 were determined by immunoblot analysis (FIG. 14a).

Jak2 = assay: Immunoblot of Jak2 phosphorylation in A2058 cells; type: cell-based, human; details: A2058, 0.5-5 μM, 4 hr, vs negative control, concentration-associated
Protocol: as §6
as §6, with “of” for “of 0.5 μM, 1.0 μM, 2.5 μM, and”, “μM.” for “μM respectively.”, “Cells” for “After 4 hr, cells”, “buffer 0.5 hr, 1 hr, 2 hr, 4 hr, 6 hr and 24 hr after treatment.” for “buffer.”, “of” for “of Her2/Neu,”, “14b).” for “14a).”

Src = assay: Immunoblot of Src phosphorylation in A2058 cells; type: cell-based, human; details: A2058, 0.5-5 μM, 4 hr, vs negative control, concentration-associated
Protocol: as §6
as §6, with “of” for “of 0.5 μM, 1.0 μM, 2.5 μM, and”, “μM.” for “μM respectively.”, “Cells” for “After 4 hr, cells”, “buffer 0.5 hr, 1 hr, 2 hr, 4 hr, 6 hr and 24 hr after treatment.” for “buffer.”, “of” for “of Her2/Neu,”, “14b).” for “14a).”

Stat3 = assay: Immunoblot of Stat3 phosphorylation in A2058 cells; type: cell-based, human; details: A2058, 0.5-5 μM, 4 hr, vs negative control, concentration-associated
Protocol: as §6
as §6, with “of” for “of 0.5 μM, 1.0 μM, 2.5 μM, and”, “μM.” for “μM respectively.”, “Cells” for “After 4 hr, cells”, “buffer 0.5 hr, 1 hr, 2 hr, 4 hr, 6 hr and 24 hr after treatment.” for “buffer.”, “of” for “of Her2/Neu,”, “14b).” for “14a).”

AKT = assay: Immunoblot of AKT phosphorylation in A2058 cells; type: cell-based, human; details: A2058, 0.5-5 μM, 4 hr, vs negative control, concentration-associated
Protocol: as §6
as §6, with “of” for “of 0.5 μM, 1.0 μM, 2.5 μM, and”, “μM.” for “μM respectively.”, “Cells” for “After 4 hr, cells”, “buffer 0.5 hr, 1 hr, 2 hr, 4 hr, 6 hr and 24 hr after treatment.” for “buffer.”, “of” for “of Her2/Neu,”, “14b).” for “14a).”

Erk1/2 [12] = assay: Immunoblot of Erk1/2 phosphorylation in A2058 cells; type: cell-based, human; details: A2058, 0.5-5 μM, 4 hr, vs negative control, concentration-associated
Protocol: as §6
as §6, with “of” for “of 0.5 μM, 1.0 μM, 2.5 μM, and”, “μM.” for “μM respectively.”, “Cells” for “After 4 hr, cells”, “buffer 0.5 hr, 1 hr, 2 hr, 4 hr, 6 hr and 24 hr after treatment.” for “buffer.”, “of” for “of Her2/Neu,”, “14b).” for “14a).”

[13] = system: Ly-3 lymphoma SQ xenografts; assay: Ly-3 lymphoma SQ xenografts in mice; type: in vivo; details: oral, 100 mg/kg once a day, 7th treatment day, P=0.03 vs vehicle
Protocol: Ly-3 lymphoma cells (1×10^7) were subcutaneously injected to II-2 rg(ko)/NOD-SCID female mice. 7 mice were treated with vehicle as the control group once a day. 7 mice were treated with Compound 109 as the treatment group by oral administration at 100 mg/kg dose, once a day. Mice were euthanized at the 7th treatment day by IACUC of the Beckman Research Institute of City of Hope. In the figure, * means P=0.03 wherein P values less than 0.05 were considered statistically significant.

[14] = Homo sapiens, DU-145, 48 h, DU145, 48 hr, 0.05 to 10 μM in 1% DMSO, MTS (Table 2a), read-out: DU145 IC50
[15] = Homo sapiens, A2058, 48 h, 0.05 to 10 μM in 1% DMSO, MTS (Table 2a), read-out: A2058 IC50

IC50 [1, 14]: 300 nM
IC50 [2, 15]: 210 nM
IC50 [3]: 100 nM
IC50 [4]: 96 nM
IC50 [5]: 340 nM
IC50 ([6]; Homo sapiens, A2780, 48 h): 440 nM
IC50 [7]: 39 nM
IC50 [8]: 38 nM
IC50 [9]: 130 nM
Compound: O=C1C(=O)N(C/C=C/c2ccccc2)c2ccc(-c3cccnc3)cc21 [Compound 22]
content of Cyclin B1 (Cyclin B1): increased amount of Cyclin B1
phosphorylation of Cdc25C (Cdc25C): less phosphorylation of Cdc25C
tubulin polymerization in vitro (tubulin): substantially inhibited tubulin polymerization

IC50 [1, 14]: 790 nM
IC50 [2, 15]: 780 nM
IC50 [3]: 970 nM
IC50 [10]: > 5000 nM
IC50 [5]: 800 nM
Compound: O=C1C(=O)N(Cc2ccccc2)c2ccc(-c3cccnc3)cc21 [Compound 2]
phosphorylation of EGFR (EGFR): less phosphorylations
phosphorylation of Erk1/2 (Erk1/2 [11]): less phosphorylations
phosphorylation of Her2/Neu (Her2/Neu): less phosphorylations
phosphorylation of Jak2 (Jak2): less phosphorylations
phosphorylation of Src (Src): less phosphorylations
phosphorylation of Stat3 (Stat3): less phosphorylations
phosphorylation of AKT (AKT): less phosphorylations
phosphorylation of Erk1/2 (Erk1/2 [12]): less phosphorylations

IC50 ([1]; DU145, compound in DMSO, 48 hr, MTS (Table 2b), read-out: IC50 value, DMSO, DU145): 480 nM
IC50 ([1]; Homo sapiens, DU-145, 48 h, DU145, compound in water, 48 hr, MTS (Table 2b), read-out: IC50 value, Water, DU145): 630 nM
IC50 ([2]; A2058, compound in DMSO, 48 hr, MTS (Table 2b), read-out: IC50 value, DMSO, A2058): 580 nM
IC50 ([2]; Homo sapiens, A2058, 48 h, A2058, compound in water, 48 hr, MTS (Table 2b), read-out: IC50 value, Water, A2058): 1000 nM
IC50 [7]: 63 nM
Compound: O=C1C(=O)N(C/C=C/c2cccnc2)c2ccc(-c3cccnc3)cc21 [Compound 109]
efficacy (tumor volume) in Ly-3 lymphoma SQ xenografts [13]: statistically significantly showed efficacy

IC50 [1, 14]: 470 nM
IC50 [2, 15]: 660 nM
IC50 [5]: 840 nM
IC50 [6]: 390 nM
IC50 ([6]; Homo sapiens, A2780, 48 h): 750 nM
IC50 [7]: 260 nM
Compound: O=C1C(=O)N(CCCc2ccccc2)c2ccc(-c3cccnc3)cc21 [Compound 9]
viability of A2780 cisplatin-resistant ovarian cancer cells in comparison of cisplatin ([6]; FIG. 9, compared with cisplatin): significantly reduced the viability
